Assay results taken from patent US20060121449A1, “Method for selection of compounds which inhibit clonal cell growth and use thereof” (priority 2002, published 2006).
“Also recorded” adds a separate entry of the source.

Tests used:
[1] = system: HSV1; test: HSV1 replication and cytopathogenicity in RK13 cells (Exp 11a, 11b); type: cell-based, Herpes virus type 1; conditions: for Cytopathogenicity read after 24 hours: 4d = 100% degenerated; for Cell layer read after 24 hours: 4 g = unaffected and covering bottom of the well; for Coverage of the bottom read after 2 days / Cytopathogenicity read after 2 days: 11b, HSV 2 μl/well; for Coverage of the bottom read after 2 days: 1 g = 100% coverage of the bottom; for Cytopathogenicity read after 2 days: 1d is 100% degeneration
[2] = system: Ehrlich ascites cells injected subcutaneously; test: Subcutaneously transplanted Ehrlich cells in mice, export of metastatic cells (Exp 9); conditions: for Export (migration) of subcutaneously injected Ehrlich cells to peritoneum in treated animals / Solid tumours at subcutaneous injection sites: Exp 9; for Export (migration) of subcutaneously injected Ehrlich cells to peritoneum in treated animals: i.p. injections twice a week, untreated control developed ascites only
Method: This assay involves different numbers of Ehrlich carcinoma cells injected in six subcutaneous locations of mice that were treated by intraperitoneal injections of the compound tested, e.g. 4-OH-OPB (experiment number 9). […] When operating with different cell numbers in the different injection sites, the number of growing tumours indicated which cell number that is necessary for the development of tumours in treated or untreated animals.
Ehrlich ascites was stored in liquid nitrogen on serum with 10% DMSO. The ampoules were thawed in water of 37° C., diluted in serum, and pelleted by low speed centrifugation after the addition of 2 ml FBS, to remove DMSO.
The cells were diluted in volumes of 0.6 ml RPM (pH about 6.9) for each animal with no serum added. The 4-OH-OPB was injected intraperitonally twice a week, see Table 2.

[3] = system: spleen antibody producing cells against sheep red cells; test: Jerne's test: haemolytic plaques of spleen cells after immunisation with sheep red cells (Exp 10); type: in vivo, mouse; conditions: for Change of number of plaques (antibody producing cells), average and high doses: 8.4 μl 20 mM and 3.5 μl 200 mM s.c.; for Condition of the animals on injection days (day 0 to day 62): all animals, s.c. 2 μl 20 mM to 3.5 μl 200 mM, day = column head; for Plaque no. in 10 mill. cells: control 4689
Method: The same principle could be tested in animals using the classical Jerne's test. Shortly described: Mice were immunised with sheep red cells. At the same time subcutaneous injection with a clone inhibitor, e.g. 4-OH-OPB, was performed. After 5 days the spleen was squeezed and spleen-cells counted and mixed with agar medium, sheep red cells and complement. After a short time plaques appeared and were counted and percent of total number of spleen cells was calculated. […] Therefore, it is probable that it is only the reaction against the new immunogen that is affected. […] Only cells of the same specificity seemed to be the <> of clonal inhibition even if lots of other B-lymphocytes are present, but with other specificities. The only condition necessary seemed to be that affected cells should be located more than a certain distance from each other.
In order to examine the degree of diminishing cloning in the immune system, Jerne's test in mice may be suitable (Experiment 10). Sheep erythrocytes are injected into mice. A few days later cells from the spleen of the animals are studied. In experiment 10 the smallest dose was about 3.8 μM if 4-OH-OPB was solved in the extracellular fluid of the mouse. […] But there are indications that normal cells might tolerate higher doses than malignant cells. Therefore, it is thought that effective tumour inhibiting doses of 4-OH-OPB probably will affect the clonability of antibody producing cells in the spleen under or shortly after primary immunisation moderately, about 2 logs.
The test animals were 4 mice, white Bom/NMRI (Table 5). The drug that was tested in this experiment is 4-OH-OPB (Table 1-4). It is inhibiting Ehrlich ascites when injected together with the cells in peritoneum in a concentration of 4 μM or higher and clonal growth of BHK21/c13 and its polyoma virus transformed offspring, S100T1, in cell culture.
A section was performed; they were weighed and a search for tumour masses was undertaken without finding any. The spleens were removed and about half of it crushed in 0.5 ml Eagles for getting extracted, free spleen cells that were seeded in soft agar on top of a solid agar layer in a Petri dish of 8.5 cm in diameter. The agar layer with spleen cells also contained sheep red cells and complement was added to obtain hemolysis.
Animals were killed by cervical dislocation on day 62 and spleens were immediately put on cold Eagle's medium for transportation. It lasted about 5 hours before the agar dishes were ready for incubation in 5% CO2 and 37° C. However, the dishes from mouse #1 and #2 were too fluid in the top layers and developed two many plaques to be counted. Therefore, the next day, the second half of the two spleens from mouse #1 and #2 that were kept cold in the same medium were crushed in the same way and new dishes were prepared with less number of cells.

[4] = system: spleen antibody producing cells against sheep red cells; test: as above; type: in vivo, mouse; conditions: Exp 10 animal 2, low: 2 μl 20 mM s.c. (est. max extracellular 4.6 μM)
[5] = system: MT4 cells; test: Clonal growth of MT4 cells in fluid medium, cross dilution of cells and inhibitor (Exp 14); type: cell-based
Method: Ten fold cell dilutions indicatet in the last row (Table 1) were undertaken in Falcon tissue culture tray using 6×6 wells.
The 4-OH-OPB dilutions were prepared minutes before being used from 20 mM stock solution in DMSO.
The 10 μM and 3 μM dilutions were made first and each of them were diluted further in 1/10 steps.

[6] = 11a, inoculate 1 μl/well, 30 μM
[7] = 11a, inoculate 4 μl/well, 30 μM
[8] = 11a, inoculate 16 μl/well, 30 μM
[9] = Exp 9 mouse 1: 10.5 μl 0.2 M i.p. (est. extracell. conc. 281)
[10] = Exp 9 mouse 1: 10.5 μl 0.2 M i.p. twice a week (est. extracell. conc. 281)
[11] = Exp 9 mouse 3: 9.6 μl 20 mM i.p. (27.9)
[12] = Exp 9 mouse 3: 9.6 μl 20 mM i.p. twice a week (27.9)
[13] = Exp 9 mouse 4: 1.37 μl 20 mM i.p. (2.8)
[14] = Exp 10 animal 2, low: 2 μl 20 mM s.c.
[15] = Exp 10 animal 3, average: 8.4 μl 20 mM s.c.
[16] = Exp 10 animal 4, high: 3.5 μl 200 mM s.c.

Compound: CCCCC1(O)C(=O)N(c2ccccc2)N(c2ccc(O)cc2)C1=O (stereo not shown) [4-OH-OPB, 4-butyl-4-hydroxy-2(p-hydroxyphenyl)-1-phenyl-3,5-pyrazolidinedione]
- HSV titration of treated wells, read after 4 days ([1]; 11a, 1 μl HSV, 0.3 μM, dilution 1/1024): ((+)?
- Cytopathogenicity read after 24 hours ([1]; 11a, inoculate 1 μl/well, 0.1 μM): 1.7 days
- Cytopathogenicity read after 24 hours ([1]; 11a, inoculate 1 μl/well, 0.3 μM): 1.7 days
- Cytopathogenicity read after 24 hours ([1]; 11a, inoculate 1 μl/well, 1 μM): 1.7 days
- Cytopathogenicity read after 24 hours ([1]; 11a, inoculate 1 μl/well, 3 μM): 1.7 days
- Cytopathogenicity read after 24 hours ([1]; 11a, inoculate 1 μl/well, 10 μM): 4 days
- Cell layer read after 24 hours [1, 6]: 3 to 4 g
- Cytopathogenicity read after 24 hours [1, 6]: 0 days
- Cytopathogenicity read after 24 hours ([1]; 11a, inoculate 4 μl/well, 0.1 μM): 2.6 days
- Cytopathogenicity read after 24 hours ([1]; 11a, inoculate 4 μl/well, 0.3 μM): 2.6 days
- Cytopathogenicity read after 24 hours ([1]; 11a, inoculate 4 μl/well, 1 μM): 2.6 days
- Cytopathogenicity read after 24 hours ([1]; 11a, inoculate 4 μl/well, 3 μM): 2.6 days
- Cytopathogenicity read after 24 hours ([1]; 11a, inoculate 4 μl/well, 10 μM): 4 days
- Cell layer read after 24 hours [1, 7]: 3 to 4 g
- Cytopathogenicity read after 24 hours [1, 7]: 0 days
- Cytopathogenicity read after 24 hours ([1]; 11a, inoculate 16 μl/well, 0.1 μM): 3.4 days
- Cytopathogenicity read after 24 hours ([1]; 11a, inoculate 16 μl/well, 0.3 μM): 3 to 4 days
- Cytopathogenicity read after 24 hours ([1]; 11a, inoculate 16 μl/well, 1 μM): 3.4 days
- Cytopathogenicity read after 24 hours ([1]; 11a, inoculate 16 μl/well, 3 μM): 4 days
- Cytopathogenicity read after 24 hours ([1]; 11a, inoculate 16 μl/well, 10 μM): 4 days
- Cell layer read after 24 hours [1, 8]: 3 to 4 g
- Cytopathogenicity read after 24 hours [1, 8]: 0.5 days
- Coverage of the bottom read after 2 days ([1]; 0.3 μM): 1 g
- Coverage of the bottom read after 2 days ([1]; 1 μM): 1 g
- Cytopathogenicity read after 2 days ([1]; 1 μM): 0.28 days
- Coverage of the bottom read after 2 days ([1]; 3 μM): 1 g
- Cytopathogenicity read after 2 days ([1]; 3 μM): 0.28 days
- Cytopathogenicity read after 2 days ([1]; 10 μM): 1 days
- Coverage of the bottom read after 2 days ([1]; 30 μM): 1 g
- Concentration that inhibited HSV / necessary for the cure of the infection in cell culture ([1]; Exp 11a, inoculate not removed before titration): 10 µM
- Concentration that inhibited satisfactorily ([1]; Exp 11b): 1000 nM
- Total titre reduction ([1]; Exp 11b): about 3.5 log
- Dose giving maximal inhibition of HSV1 titre ([1]; Exp 11b, titration read after four days): ≥ 1 µM
- Inhibition in Exp 11b compared with Exp 11a ([1]; medium changed the day after infection): 10 times
- Export (migration) of subcutaneously injected Ehrlich cells to peritoneum in treated animals [2]: did not get ascites with tumour cells, only solid tumours; also recorded: no spread of tumour cells from these subcutaneous injection sites were found in peritoneum; also recorded: effective in stopping migration of tumour cells to peritoneum; also recorded: None of the treated ones got ascites
- Export (migration) of subcutaneously injected Ehrlich cells to peritoneum in treated animals ([2]; listed as 4-OH—OPB): Found inhibition on metastatic
- Solid tumours at subcutaneous injection sites ([2]; the two mice receiving smaller doses): only one tumour
- Solid tumours at subcutaneous injection sites ([2]; very high dose mouse, sites with 6250 and 31250 cells): two tumours of the abdominal wall
- Toxic effects of the very high dose ([2]; Exp 9 mouse 1: 10.5 μl 0.2 M i.p.): caused adherences in peritoneum; also recorded: liver, spleen and possibly kidneys became affected by its toxicity; also recorded: died of haemorrhagic effusion in thorax
- Day 21, pathology [2, 9]: Ascites
- Pathology after 24 days [2, 9]: Ascites or thoracic fluid did not contain Ehrlich cells
- Pathology after 24 days ([2]; Exp 9 mouse 1: 10.5 μl 0.2 M i.p. (est. extracell. conc. 281), listed as 4-OH—OPB): number developed solid tumours; also recorded: Toxic ascites and thoracic
- Clinical status, day 14 [2, 10]: No Ehrlich
- Day 3-7, clinical status [2, 10]: no tumour
- Weight, day 18 ([2]; Exp 9 mouse 1: 10.5 μl 0.2 M i.p. twice a week, initial weight 26.2): 37.4 g
- Animal weight after 24 days ([2]; Exp 9 mouse 1: 10.5 μl 0.2 M i.p., initial weight 26.2): 40.2 g
- Day 21, pathology [2, 11]: Lens sized
- Pathology after 24 days [2, 11]: Ascites or organ tumours were not found
- Pathology after 24 days ([2]; Exp 9 mouse 3: 9.6 μl 20 mM i.p. (27.9), listed as 4-OH—OPB): Pea sized tumour in left
- Clinical status, day 14 [2, 12]: No tumour
- Clinical status, day 18 [2, 12]: No tumour
- Animal weight after 24 days ([2]; Exp 9 mouse 3: 9.6 μl 20 mM i.p., initial weight 24.1): 25 g
- Day 21, pathology [2, 13]: Small tumour
- Pathology after 24 days [2, 13]: slightly observable tumour in the abdominal wall
- Pathology after 24 days ([2]; Exp 9 mouse 4: 1.37 μl 20 mM i.p. (2.8), listed as 4-OH—OPB): days ago, now lens sized.
- Animal weight after 24 days ([2]; Exp 9 mouse 4: 1.37 μl 20 mM i.p., initial weight 34.2): 33.5 g. Tumour as discovered 3
- Estimated concentration in extracellular fluid at which serious toxicity occurs ([2]; extracellular fluid calculated as 2/7 of the animal weight): 280 µM
- Change of number of plaques, smallest dose ([3]; Exp 10, 2 μl 20 mM s.c.): did not significantly change the number of plaques
- Change of number of plaques (antibody producing cells), average and high doses ([3]; Exp 10): did reduce the number significantly
- Change of number of plaques (antibody producing cells), average and high doses ([3]; Exp 10, listed as 4-OH—OPB): OPB significantly reduced the number of anti-
- Condition of the animals on injection days (day 0 to day 62) ([3]; Exp 10): all animals were clinically well
- Condition of the animals on injection days (day 0 to day 62) ([3]; Exp 10, listed as 4-OH—OPB): all well at end
- 1. number of plaques [3, 14]: many
- 2. number of plaques ([3]; Exp 10 animal 2, low: 2 μl 20 mM s.c., 32.6 million cells on dish): 10218
- Plaque no. in 10 mill. cells [3, 14]: 3134
- 1. number of plaques [3, 15]: 42
- Spleen weight ([3]; Exp 10 animal 3, average: 8.4 μl 20 mM s.c. (est. max extracellular 19.6 μM)): 150 mg
- Plaque no. in 10 mill. cells [3, 15]: 8.4
- 1. number of plaques [3, 16]: 0-2?
- Spleen weight ([3]; Exp 10 animal 4, high: 3.5 μl 200 mM s.c. (est. max extracellular 67.7 μM)): 136 mg
- Plaque no. in 10 mill. cells [3, 16]: <=0.23
- Mouse weight after 2 months ([3]; Exp 10 mouse 2 (11.3 μg 4-OH-OPB/30 g)): 37.6 gram
- Mouse weight after 2 months ([3]; Exp 10 mouse 3 (51.5 μg 4-OH-OPB/30 g)): 33.3 gram
- Mouse weight after 2 months ([3]; Exp 10 mouse 4 (210.2 μg 4-OH-OPB/30 g)): 34 gram
- Spleen weight [4]: 148 mg
- Concentration needed for arresting colony growth: less in cultures with 5000 cells than with 500000 cells [5]: about 2 logs
